Counter-ions that a name gives are not always drawn.
target: T1, steroid 17α-hydroxylase and/or steroid C17-20 lyase (Rattus norvegicus, UniProt P11715); assay: Measurement of steroid 17α-hydroxylase and/or steroid C17-20 lyase inhibitory activity (rat testis microsome); type: biochemical; details: test compound 300 nM, substrate 25 μM 17α-hydroxyprogesterone, NADPH 500 μM
T1 construct: the testis of rats (SD, male) was homogenized and centrifuged to obtain microsome; from tissue; host or cells: rat (SD, male) testis microsomes
T1 sequence (P11715 1-507): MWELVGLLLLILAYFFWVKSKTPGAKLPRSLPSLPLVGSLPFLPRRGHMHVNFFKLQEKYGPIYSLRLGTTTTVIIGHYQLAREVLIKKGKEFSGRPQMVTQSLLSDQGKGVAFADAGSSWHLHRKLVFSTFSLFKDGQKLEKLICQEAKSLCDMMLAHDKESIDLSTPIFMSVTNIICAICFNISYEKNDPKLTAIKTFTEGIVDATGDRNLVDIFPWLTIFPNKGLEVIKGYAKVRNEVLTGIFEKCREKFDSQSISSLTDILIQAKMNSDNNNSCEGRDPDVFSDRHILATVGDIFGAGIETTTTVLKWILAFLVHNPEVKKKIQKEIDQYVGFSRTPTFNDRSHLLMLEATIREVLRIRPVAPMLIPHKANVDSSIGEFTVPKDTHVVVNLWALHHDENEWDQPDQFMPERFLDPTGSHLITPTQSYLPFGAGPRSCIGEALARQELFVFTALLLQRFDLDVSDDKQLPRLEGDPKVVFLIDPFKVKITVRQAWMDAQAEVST
Method: An experiment was carried out according to the method of T. Sergejew and R. W.
Hartmann (J. Enzyme Inhibition, 8, 113 (1994)). That is, the testis of rats (SD, male) was homogenized and centrifuged to obtain microsome. Each compound of the present invention prepared in Examples 1-13 was put into a micro tube (1.5 ml, Eppendorf Co.). After the addition of 100 μl of microsome protein solution, the concentration of which was adjusted to 0.1 mg/ml using 50 mM phosphate buffer solution (pH 7.4), 140 μl of 125 nmol NADPH solution, and 10 μl of 6.25 nmol 17α-hydroxyprogesterone, the mixture was incubated at 37° C. for 20 minutes. 50 μl of 1N hydrochloric acid and 1000 μl of ethyl acetate were sequentially added to the mixture. The mixture was shaken and centrifuged. The ethyl acetate layer was then washed with 250 μl of 50 mM phosphate buffer solution (pH 7.4) and 50 μl of IN hydrochloric acid, centrifuged, and concentrated. The concentrate was dissolved in 100 μl of acetonitrile. 10 μl of this solution was charged to high performance liquid chromatography. The amounts of the substrate and the formed product (androstenedione and testosterone) were measured to determine the enzyme activity. A sample without the test compound added was provided as a control. Steroid 17α-hydroxylase and/or steroid C17-20 lyase inhibitory activity (%) was calculated from the amounts of each substrate and product using the following equation (1). [formula]

| Structure (SMILES) | inhibition at 0.3 µM [%] |
| --- | --- |
| c1cncc(-c2ccc3c(-c4cccnc4)coc3c2)c1 [Example 7, 3-[6-(3-pyridyl)benzo[b]furan-3-yl]pyridine] | 75 |
| Nc1cccc(-c2ccc3c(-c4cccnc4)coc3c2)c1 [Example 6, 3-[3-(3-pyridyl)benzo[b]furan-6-yl]phenylamine] | 90 |
| Oc1cccc(-c2ccc3c(-c4cccnc4)coc3c2)c1 [Example 11, 3-[3-(3-pyridyl)benzo[b]furan-6-yl]phenol] | 81 |
| Oc1ccc(-c2ccc3c(-c4cccnc4)coc3c2)cc1O [Example 12, 4-[3-(3-pyridyl)benzo[b]furan-6-yl]-1,2-benzenediol hydrobromide] | 66 |

Continued, values first:

| inhibition at 0.3 µM [%] | Structure (SMILES) |
| --- | --- |
| 89 | c1cncc(-c2coc3cc(-c4ccsc4)ccc23)c1 [Example 13, 3-[6-(3-thienyl)benzo[b]furan-3-yl]pyridine hydrochloride] |
| 64 | Fc1ccc(-c2ccc3c(-c4cccnc4)coc3c2)cc1 [Example 3, 3-[6-(4-fluorophenyl)benzo[b]furan-3-yl] Pyridine] |
| 45 | c1ccc(-c2ccc3c(-c4cccnc4)coc3c2)cc1 [Example 9, 3-(6-phenylbenzo[b]furan-3-yl)pyridine] |
| 45 | Fc1cccc(-c2ccc3c(-c4cccnc4)coc3c2)c1 [Example 4, 3-[6-(3-fluorophenyl)benzo[b]furan-3-yl] Pyridine] |

system: not given; assay: not given; details: not given

| melting point [°C] | Structure (SMILES) |
| --- | --- |
| 140.5 to 141.5 | c1cncc(-c2ccc3c(-c4cccnc4)coc3c2)c1 [Example 7, 3-[6-(3-pyridyl)benzo[b]furan-3-yl]pyridine] |
